Patent US20250302815A1, “PROTEIN TYROSINE PHOSPHATASE TARGETING LIGANDS” (CALICO LIFE SCIENCES LLC, priority 2021, published 2025)

Experiments:
PTPN2 (B16F10.4 cells) = target: T1, PTPN2 (B16F10.4 cells) (Mus musculus, UniProt Q06180); assay: HiBiT Degradation B16F10.4 PTPN2; format: cell-based; conditions: 24.0 hours
T1 construct: HiBiT; host or cells: B16F10.4
T1 sequence (Q06180 1-406): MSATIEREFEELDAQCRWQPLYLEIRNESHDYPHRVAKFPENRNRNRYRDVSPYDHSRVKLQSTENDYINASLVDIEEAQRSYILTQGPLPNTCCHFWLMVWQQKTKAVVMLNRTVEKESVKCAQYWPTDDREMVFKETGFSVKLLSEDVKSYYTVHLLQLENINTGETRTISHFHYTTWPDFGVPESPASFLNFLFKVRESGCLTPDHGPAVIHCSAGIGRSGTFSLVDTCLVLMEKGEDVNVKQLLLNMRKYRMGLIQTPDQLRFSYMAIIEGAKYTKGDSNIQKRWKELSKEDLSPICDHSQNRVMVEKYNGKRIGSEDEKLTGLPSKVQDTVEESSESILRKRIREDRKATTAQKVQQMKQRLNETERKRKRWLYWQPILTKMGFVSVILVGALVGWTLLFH

[1] = target: T2, PTPN2 (HiBIT-PTPN2 in 293T.109 cells) (Homo sapiens, UniProt P17706); assay: HiBiT Degradation 293T.109 PTPN2 (Nano-Glo HiBiT Lytic Assay); format: cell-based; conditions: 24.0 hours
T2 construct: expressed in transfected cells; host or cells: 293T.109 (293T WT from ATCC)
T2 sequence (P17706 1-415): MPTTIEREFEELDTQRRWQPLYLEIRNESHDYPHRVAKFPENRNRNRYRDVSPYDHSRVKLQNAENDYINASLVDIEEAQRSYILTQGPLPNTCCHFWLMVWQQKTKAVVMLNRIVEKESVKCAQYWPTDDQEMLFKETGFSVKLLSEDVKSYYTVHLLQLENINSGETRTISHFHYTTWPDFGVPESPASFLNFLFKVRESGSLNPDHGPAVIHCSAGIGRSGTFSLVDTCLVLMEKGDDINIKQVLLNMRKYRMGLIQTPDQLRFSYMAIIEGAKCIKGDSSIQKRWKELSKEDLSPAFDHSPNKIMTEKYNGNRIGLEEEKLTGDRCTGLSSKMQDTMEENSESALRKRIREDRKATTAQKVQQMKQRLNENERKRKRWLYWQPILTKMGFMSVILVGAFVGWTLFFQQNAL
Outline: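 Degradation read-out: lytic HiBiT luminescence after 24 h treatment (37 °C, 5% CO2) of 5000 293T cells per well expressing HiBiT-fused PTPN2 from an N-terminal tag. Dosing was 11 points, half-log steps down from 10 μM, in duplicate; vehicle-treated and no-reagent wells served as controls.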

DC50 (PTPN2 (B16F10.4 cells))	DC50 [1]	SMILES
< 50 nM	200 to 1000 nM	CC1(C)C[C@H](Nc2cccc(-c3sc(C(=O)O)c(OCC(=O)O)c3Cl)c2)CCN1S(=O)(=O)Cc1ccc(F)c(NC(=O)N2CCC(c3ccc4c5c(cccc35)C(=O)N4C3CCC(=O)NC3=O)CC2)c1 (stereo partly shown) [Example 127]
200 to 1000 nM	50 to 200 nM	O=C(O)COc1c(C(=O)O)sc(-c2cccc(NC3CCN(S(=O)(=O)Cc4ccc(F)c(NC(=O)C5CN(C(=O)COc6cccc7c6CN(C6CCC(=O)NC6=O)C7=O)C5)c4)CC3)c2)c1Cl (stereo not shown) [Example 93]
≥ 1000 nM	200 to 1000 nM	CC(Nc1cccc2c1CN(C1CCC(=O)NC1=O)C2=O)C(=O)NCCCCCCC(=O)Nc1cccc(CS(=O)(=O)N2CCC(Nc3cccc(-c4sc(C(=O)O)c(OCC(=O)O)c4Cl)c3)CC2)c1 (stereo not shown) [Example 26, 3-(carboxymethoxy)-4-chloro-5-[3-[[1-[[3-[7-[2-[[2-(2,6-dioxo-3-piperidyl)-1-oxo-isoindolin-4-yl]amino]propanoylamino]heptanoylamino]phenyl]methylsulfonyl]-4-piperidyl]amino]phenyl]thiophene-2-carboxylic acid]
50 to 200 nM	< 50 nM	CC1(C)C[C@@H](Nc2cccc(-c3sc(C(=O)O)c(OCC(=O)O)c3Cl)c2F)CCN1S(=O)(=O)Cc1ccc(F)c(NC(=O)C2CN(C(=O)CNc3cccc4c3CN(C3CCC(=O)NC3=O)C4=O)C2)c1 (stereo partly drawn) [Example 148, 3-(carboxymethoxy)-4-chloro-5-[3-[[(4S)-1-[[3-[[1-[2-[[2-(2,6-dioxo-3-piperidyl)-1-oxo-isoindolin-4-yl]amino]acetyl]azetidine-3-carbonyl]amino]-4-fluoro-phenyl]methylsulfonyl]-2,2-dimethyl-4-piperidyl]amino]-2-fluoro-phenyl]thiophene-2-carboxylic acid]
50 to 200 nM	50 to 200 nM	CC1(C)C[C@@H](Nc2cccc(-c3sc(C(=O)O)c(OCC(=O)O)c3Cl)c2)CCN1S(=O)(=O)Cc1cccc(NC(=O)N2CCCN(c3ccc4c5c(cccc35)C(=O)N4C3CCC(=O)NC3=O)CC2)c1 (stereo partly drawn) [Example 163, 3-(carboxymethoxy)-4-chloro-5-(3-(((4S)-1-((3-(4-(1-(2,6-dioxopiperidin-3-yl)-2-oxo-1,2-dihydrobenzo[cd]indol-6-yl)-1,4-diazepane-1-carboxamido)benzyl)sulfonyl)-2,2-dimethylpiperidin-4-yl)amino)phenyl)thiophene-2-carboxylic acid]
50 to 200 nM	50 to 200 nM	Cn1c(=O)n(C2CCC(=O)NC2=O)c2ccc(C3CCN(CC(=O)Nc4cccc(CS(=O)(=O)N5CCC(Nc6cccc(-c7sc(C(=O)O)c(OCC(=O)O)c7Cl)c6)CC5)c4)CC3)cc21 (stereo not shown) [Example 55, 3-(carboxymethoxy)-4-chloro-5-[3-[[1-[[3-[[2-[4-[1-(2,6-dioxo-3-piperidyl)-3-methyl-2-oxo-benzimidazol-5-yl]-1-piperidyl]acetyl]amino]phenyl]methylsulfonyl]-4-piperidyl]amino]phenyl]thiophene-2-carboxylic acid]
200 to 1000 nM	200 to 1000 nM	CC1(C)C[C@@H](Nc2cccc(-c3sc(C(=O)O)c(OCC(=O)O)c3Cl)c2)CCN1S(=O)(=O)Cc1cccc(NC(=O)CCOCCn2cc(CNc3cccc4c3C(=O)N(C3CCC(=O)NC3=O)C4=O)nn2)c1 (stereo partly drawn) [Example 15, 3-(carboxymethoxy)-4-chloro-5-(3-(((4S)-1-((3-(3-(2-(4-(((2-(2,6-dioxopiperidin-3-yl)-1,3-dioxoisoindolin-4-yl)amino)methyl)-1H-1,2,3-triazol-1-yl)ethoxy)propanamido)benzyl)sulfonyl)-2,2-dimethylpiperidin-4-yl)amino)phenyl)thiophene-2-carboxylic acid]
200 to 1000 nM	50 to 200 nM	CC1(C)C[C@@H](Nc2cccc(-c3sc(C(=O)O)c(OCC(=O)O)c3Cl)c2)CCN1S(=O)(=O)Cc1ccc(F)c(NC(=O)[C@H]2[C@@H]3CN(C(=O)CNc4cccc5c4CN(C4CCC(=O)NC4=O)C5=O)C[C@@H]32)c1 (stereo partly drawn) [Example 110, 3-(carboxymethoxy)-4-chloro-5-(3-(((4S)-1-((3-((1R,5S,6r)-3-((2-(2,6-dioxopiperidin-3-yl)-1-oxoisoindolin-4-yl)glycyl)-3-azabicyclo[3.1.0]hexane-6-carboxamido)-4-fluorobenzyl)sulfonyl)-2,2-dimethylpiperidin-4-yl)amino)phenyl)thiophene-2-carboxylic acid]
50 to 200 nM	200 to 1000 nM	Cn1c(=O)n(C2CCC(=O)NC2=O)c2ccc(C3CCN(C(=O)Nc4cccc(CS(=O)(=O)N5CCC(Oc6cccc(-c7sc(C(=O)O)c(OCC(=O)O)c7Cl)c6)CC5)c4)CC3)cc21 (stereo not shown) [Example 103, 3-(Carboxymethoxy)-4-chloro-5-[3-[[1-[[3-[[4-[1-(2,6-dioxo-3-piperidyl)-3-methyl-2-oxo-benzimidazol-S-yl]piperidine-1-carbonyl]amino]phenyl]methylsulfonyl]-4-piperidyl]oxy]phenyl]thiophene-2-carboxylic acid]
200 to 1000 nM	200 to 1000 nM	CC1(C)C[C@@H](Nc2cccc(-c3sc(C(=O)O)c(OCC(=O)O)c3Cl)c2)CCN1S(=O)(=O)Cc1cccc(NC(=O)CCn2cc(CNc3cccc4c3C(=O)N(C3CCC(=O)NC3=O)C4=O)nn2)c1 (stereo partly drawn) [Example 13, 3-(carboxymethoxy)-4-chloro-5-(3-(((4S)-1-((3-(3-(4-(((2-(2,6-dioxopiperidin-3-yl)-1,3-dioxoisoindolin-4-yl)amino)methyl)-1H-1,2,3-triazol-1-yl)propanamido)benzyl)sulfonyl)-2,2-dimethylpiperidin-4-yl)amino)phenyl)thiophene-2-carboxylic acid]
< 50 nM	< 50 nM	Cn1c(=O)n([C@H]2CCC(=O)NC2=O)c2ccc([C@@H]3CCN(C(=O)Nc4cccc(CS(=O)(=O)N5CC[C@H](Nc6cccc(-c7sc(C(=O)O)c(OCC(=O)O)c7Cl)c6)CC5(C)C)c4)CC3(F)F)cc21 (single isomer, unassigned) [Example 169a]
200 to 1000 nM	200 to 1000 nM	Cn1c(=O)n(C2CCC(=O)NC2=O)c2ccc(CN3CCN(C(=O)Nc4cccc(CS(=O)(=O)N5CC[C@H](Nc6cccc(-c7sc(C(=O)O)c(OCC(=O)O)c7Cl)c6)CC5(C)C)c4)CC3)cc21 (stereo partly drawn) [Example 221, 3-(carboxymethoxy)-4-chloro-5-[3-[[(4S)-1-[[3-[[4-[[1-(2,6-dioxo-3-piperidyl)-3-methyl-2-oxo-benzimidazol-5-yl]methyl]piperazine-1-carbonyl]amino]phenyl]methylsulfonyl]-2,2-dimethyl-4-piperidyl]amino]phenyl]thiophene-2-carboxylic acid]
50 to 200 nM	< 50 nM	Cn1c(=O)n(C2CCC(=O)NC2=O)c2ccc(N3CCC(CCNC(=O)Nc4cccc(CS(=O)(=O)N5CC[C@H](Nc6cccc(-c7sc(C(=O)O)c(OCC(=O)O)c7Cl)c6)CC5(C)C)c4)CC3)cc21 (stereo partly drawn) [Example 174, 3-(carboxymethoxy)-4-chloro-5-[3-[[(4S)-1-[[3-[2-[1-[1-(2,6-dioxo-3-piperidyl)-3-methyl-2-oxo-benzimidazol-5-yl]-4-piperidyl]ethylcarbamoylamino]phenyl]methylsulfonyl]-2,2-dimethyl-4-piperidyl]amino]phenyl]thiophene-2-carboxylic acid]
50 to 200 nM	50 to 200 nM	Cn1c(=O)n(C2CCC(=O)NC2=O)c2ccc(C3CCN(C(=O)Nc4cccc(CS(=O)(=O)N5CC[C@H](Nc6cccc(-c7sc(C(=O)O)c(OCC(=O)O)c7Cl)c6)CC5(C)C)c4)CC3)c(F)c21 (stereo partly drawn) [Example 152, 3-(carboxymethoxy)-4-chloro-5-[3-[[(4S)-1-[[3-[[4-[1-(2,6-dioxo-3-piperidyl)-4-fluoro-3-methyl-2-oxo-benzimidazol-5-yl]piperidine-1-carbonyl]amino]phenyl]methylsulfonyl]-2,2-dimethyl-4-piperidyl]amino]phenyl]thiophene-2-carboxylic acid]
≥ 1000 nM	50 to 200 nM	O=C(O)COc1c(C(=O)O)sc(-c2cccc(NC3CCN(S(=O)(=O)Cc4ccc(F)c(NC(=O)C5CCN(C(=O)CNc6cccc7c6CN(C6CCC(=O)NC6=O)C7=O)CC5)c4)CC3)c2)c1Cl (stereo not shown) [Example 77]
200 to 1000 nM	50 to 200 nM	Cn1c(=O)n(C2CCC(=O)NC2=O)c2cccc(CCC(=O)Nc3cccc(CS(=O)(=O)N4CCC(Nc5cccc(-c6sc(C(=O)O)c(OCC(=O)O)c6Cl)c5)CC4)c3)c21 (stereo not shown) [Example 53]
< 50 nM	< 50 nM	Cn1c(=O)n(C2CCC(=O)NC2=O)c2ccc([C@@H]3CCN(C(=O)Nc4cccc(CS(=O)(=O)N5CC[C@H](Nc6cccc(-c7sc(C(=O)O)c(OCC(=O)O)c7Cl)c6)CC5(C)C)c4)C[C@@H]3F)cc21 (stereo in doubt) [Example 172]
